Assay [1] can be described thus: Inhibition of MAGL.
Another assay is filed under the species Mus musculus. Nature of the assay: Inhibition of MAGL in mouse brain. It is filed as tissue-based. To be noted: dose or concentration not given here.
The test system of a further assay is Brain. Briefly: Increase in 2-arachidonoylglycerol level in mouse brain relative to untreated control. Format: functional.

The IC50 is the midpoint of a concentration-inhibition curve. A lower IC50 goes with greater potency in that assay. For orientation: inhibition means the relative decrease from the control value, in per cent. Low values mean little suppression, high ones strong suppression.

Each structure is given as a SMILES string.

On to `O=C(Oc1ccc([N+](=O)[O-])cc1)N1CCC(C(O)(c2ccc3c(c2)OCO3)c2ccc3c(c2)OCO3)CC1`, for which the 50% inhibitory concentration (IC50) in assay [1] is 8 nM. In the assay listed under Mus musculus, this compound returned an inhibition of 85%. For the same compound, in the assay on Brain, the “fold change (FC)” value turned out to be 8.

The values are drawn from ChEMBL document CHEMBL1212707, “Decoding endocannabinoid signaling” (Nat Chem Biol, 2009).
